{
  "source": "paper PMC2709231",
  "about": "(European Journal of Nuclear Medicine and Molecular Imaging, 2009)",
  "origin": "cited, not measured here",
  "conditions": "human, in vivo",
  "data": [
    {"substance": "^90Y-DTPA-(D)Glu^1-(Glu)5-Ala-Tyr-Gly-Trp-Met-Asp-Phe-NH2 [^90Y-DTPA-DGlu^1-minigastrin]", "values": [
      {"measurement": "Side effects of radionuclide therapy", "value": "serious side effects, including renal insufficiency and bone marrow toxicity"}
    ]}
  ]
}
